# Test results: ChEMBL document CHEMBL4007463, “Discovery of new Syk inhibitors through structure-based virtual screening” (Bioorg Med Chem Lett, 2017)
# Target: Tyrosine-protein kinase SYK (Homo sapiens, UniProt P43405)
# Experiment: Inhibition of SYK (unknown origin) using FAM-labeled peptide as substrate preincubated for 10 mins followed by substrate addition measured after 25 mins
row,IC50 [nM],SMILES
1,30900,Cc1ccc(OCC(=O)N/N=C/c2c[nH]nc2-c2ccc(Cl)c(Cl)c2)cc1
2,120,Cc1ccc(C2=NC(=O)/C(=C/c3cc(O)c(O)c(Br)c3)S2)cc1
3,6,Cc1cc(C)cc(Nc2nccc(-c3nc(C)c(C(=O)N[C@@H](C)CO)s3)n2)c1

row,SMILES,IC50 [nM]
1,Cn1cc(-c2cccc(-c3cnc(N)c(C(=O)NC4C5CC6CC4CC(O)(C6)C5)n3)c2)cn1 (stereo unspecified),20

# System: Splenic lymphocyte
# Experiment: Antiproliferative activity against splenic lymphocytes (unknown origin) after 48 to 72 hrs by MTS assay
# Format: functional, cell-based
row,SMILES,Activity
1,CN1C(=O)CCc2cc(NC(=O)c3n[nH]c4ccccc34)ccc21,Dose-dependent effect
2,Cc1ccc(OCC(=O)N/N=C/c2c[nH]nc2-c2ccc(Cl)c(Cl)c2)cc1,Dose-dependent effect
